From patent US20250082664A1, “NUCLEOSIDE FORMULATION” (PHION THERAPEUTICS LTD, priority 2021, published 2025)

How the values were obtained:
[1] = Ioka T, et al. 2013; cited from earlier work
BxPC-3 cells = experiment: Cell cycle analysis (propidium iodide, FACS); type: cell-based; settings: 48 hours following treatment, 2 μM (1 μg) for 5 h, manual formulations
Description: 1.5×10^5 BxPC-3 cells were plated in 6-well plates (Nunc, UK) and left to adhere for 24 h. Cells were transferred to serum free media for 24-h, to ensure synchronisation of cells. Subsequently, cells were incubated with RALA/dFdCTP nanoparticles at a concentration of 2 μM (1 μg) for 5 h before removal of treatment media and the addition of fresh complete media. 48 h following treatment, cells were trypsinsed and fixed in ice-cold 70% ethanol for 1 hour at 4° C. Cells were washed twice in Phosphate Buffered Saline (PBS) for 5 min, before resuspension in 500 μL PBS and the addition of 50 μL of 100 μg/ml RNase (Invitrogen, UK). 10 minutes prior to running samples on fluorescence-activated cell sorting (FACS), 10 μl of a 100 μg/ml stock of propidium iodide (PI) was added. Controls include: untreated; dCTP (negative control); RALA/dCTP (RALA control); dFdCTP (drug control); and gemcitabine (comparator control).
A cell cycle analysis following treatment with RALA/dFdCTP was undertaken. If dFdCTP had been successfully delivered to cells, it would be incorporated during DNA polymerase, preventing DNA chain elongation. This would ultimately prevent cells from actively proliferating. This means that during cell cycling, the cycle will be arrested at the S-phase. Therefore, if there are a higher percentage of the cells in the (G0/G1+−S) phases than compared to the G2 phase, it is an indicator that dFdCTP has affected the cell cycle.

red blood cell (RBC) = experiment: Haemolysis assay; type: cell-based; settings: ovine RBC, equivalent of 10-30 μg dFdCTP, 1 h at 37° C., isotonic trehalose solution
Description: Defibrinated ovine whole blood (5 ml, TCS Biosciences Ltd, UK) was centrifuged at 500 g in citrate-phosphate buffer (15 ml, 0.1 M citric acid, C6HsO7, and 0.2 M disodium hydrogen phosphate, Na2HPO4) for 20 min to separate erythrocytes. The erythrocytes were subsequently washed three times with 20 mL of citrate-phosphate buffer by centrifugation and re-suspended in citrate-phosphate buffer solution at a concentration of 1×10^8 cells/mL. A Countess II automated cell counter (ThermoFisher, UK) was used to count erythrocytes by first diluting the erythrocyte suspension 1:10,000 in buffer. Subsequently, isotonic solutions (of osmolality in the range 290-310 mOsmol/kg) of RALA/dFdCTP (MR2.0) nanoparticles mixed with trehalose, or dFdCTP and trehalose was added to the erythrocyte suspension, with the equivalent of 10-30 μg dFdCTP added, and the solution incubated for 1 h at 37° C. Following incubation, the erythrocyte suspensions were centrifuged for 90 s at 400 g to form a cell pellet. Absorbance of the supernatant was measured via a Nanodrop 2000c UV-Vis spectrophotometer (Thermo Scientific, UK) at 541 nm. 1% Triton X-100 was used as a positive control representing 100% haemolysis; and citrate-phosphate buffer at pH 7.4 was used as a negative control.

## Nc1ccn([C@@H]2O[C@H](CO)[C@@H](O)C2(F)F)c(=O)n1 [Gemcitabine, 2′,2′-difluoro-2′-deoxycytidine]
[1]
  overall clinical response rate: 6%
BxPC-3 cells
  Cells in (G0/G1 + S) Phase: 60.2%

## Nc1ccn([C@H]2C[C@H](O)[C@@H](COP(=O)(O)OP(=O)(O)OP(=O)(O)O)O2)c(=O)n1 [dCTP, deoxycytidine triphosphate]
BxPC-3 cells
  Cells in (G0/G1 + S) Phase: 49.9%

## Nc1ccn([C@@H]2O[C@H](COP(=O)(O)OP(=O)(O)OP(=O)(O)O)[C@@H](O)C2(F)F)c(=O)n1 [dFdCTP, 2′,2′-difluorodeoxycytidine 5′-triphosphate]
Red blood cell (RBC)
  haemolysis: > 20%
BxPC-3 cells
  Cells in (G0/G1 + S) Phase: 66.4%
